This assay has as its system CEM cells HIV-1 protection, formazan growth assay. In words: NCI AIDS Antiviral Assay. Particulars: for IC50: measured here: growth of uninfected CEM cells. The procedure, abridged:
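Steps: treat uninfected and HIV-1-infected human CEM cells at five drug levels; quantify growth by soluble formazan; retest any compound reaching 50% protection; classify actives from the retest.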

Active and inactive are the calls of the source.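 The calls were made as follows: active = compounds giving half or more protection of infected cells from virus-caused growth loss, again on retest; inactive = the rest.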

In the case of `Cc1ccc(C(=O)NC(C)C)cc1N=NN(C)C`, the EC50 was over 145 µM and the half-maximal inhibitory concentration (IC50) is over 145 µM.

In the case of `Cc1ccc(/C=C/C(=O)c2sc(-c3cccnc3)nc2C)cc1`, the EC50 was over 22.4 µM and the IC50 was over 22.4 µM.

With `O=Cc1c(O)ccc2ccc(O)c(-c3c(O)ccc4ccc(O)cc34)c12`, the EC50 is over 363 µM and the IC50 amounted to 20.9 µM.

In the case of `COC(=O)CCc1c(Cc2ccc[nH]2)[nH]c(C(=O)OCc2ccccc2)c1C`, the EC50 was over 200 µM and the half-inhibitory concentration (IC50) came to 30.9 µM.

Consider `COc1ccc(N2C(=O)C3c4[nH]c5c(C)cccc5c4C4CCC(c5ccccc5)CC4C3C2=O)cc1` (stereo not given), for which the EC50 is over 200 µM and the IC50 amounted to 60.3 µM.

As to `CN(C)CCNc1c([N+](=O)[O-])sc2ccc(Cl)cc12`, the EC50 is over 200 µM and the 50% inhibitory concentration (IC50) turned out to be 16.6 µM.

For `N.N.N.O=[N+]([O-])[O-].O=[N+]([O-])[O-].O=[N+]([O-])[O-].O=[N+]([O-])[O-].[Co+3]`, the EC50 was over 692 µM and the IC50 stood at 117 µM.

For `CC(C)(C)OC(=O)N/N=C(/N)Cc1ccccc1`, the EC50 is over 200 µM and the IC50 was over 200 µM.

Take `N#Cc1c(O)c2ccccc2[nH]c1=O`: the EC50 is over 200 µM and the half-inhibitory concentration (IC50) was over 200 µM.

For the compound `COC(=O)CC1NC(=O)C1C(C)O[Si](C)(C)C(C)(C)C` (stereo not given), the EC50 is over 603 µM and the half-maximal inhibitory concentration (IC50) was 288 µM.

As to `COc1ccc2c3c(n(Cc4ccccc4)c(=O)c2c1)-c1cc(OC)c(OC)cc1C3C` (stereo not given), the EC50 is over 6.31 µM and the 50% inhibitory concentration (IC50) is over 6.31 µM.

In the case of `CC(C)(C)OC(=O)N1CC(O)O[C@H](c2ccccc2)[C@@H]1c1ccccc1` (stereo not given in full), the EC50 is over 200 µM and the 50% inhibitory concentration (IC50) was 32.4 µM.

On to `S=c1ncc(-c2cncc(-c3cnc(=S)[nH]c3)n2)c[nH]1`, for which the EC50 was over 200 µM and the 50% inhibitory concentration (IC50) was over 200 µM.

In the case of `N#CN(CS(=O)(=O)O)C(=N)N`, the EC50 was over 200 µM and the concentration for half-maximal inhibition (IC50) is over 200 µM.

Consider `COC(=O)c1cc(C(=CCCN=[N+]=[N-])c2cc(Cl)c(OC)c(C(=O)OC)c2)cc(Cl)c1OC`, for which the EC50 is 33.1 µM and the IC50 is 34.7 µM.

Turning to `CCCCCCCSCc1nc2ccccc2c(C)[n+]1[O-]`, the concentration giving a half-maximal response (EC50) was over 66.1 µM and the IC50 was 50.1 µM.

`Oc1cccnc1/C=N/OCc1ccccc1`: the EC50 is over 295 µM and the IC50 was determined as 219 µM.

Take `COc1cccc(OC)c1C1ON=C(c2ccccc2)N1C12CC3CC(CC(C3)C1)C2` (stereo not given): the EC50 is over 200 µM and the IC50 came out at 141 µM.

As to `O=c1[nH][nH]c(=O)n1Cc1ccccc1`, the EC50 was over 200 µM and the half-maximal inhibitory concentration (IC50) was over 200 µM.

Consider `COC12OCCN(C)C1=CC(=O)C1(C)N=NCC12` (stereo not given), for which the outcome was inactive.

As to `COC(=O)C1CCC(=O)N1C(c1ccccc1)c1ccc(OC)c(OC)c1` (stereo not given), the EC50 is over 200 µM and the IC50 was over 200 µM.

`C=C(C)C(=O)O[C@H]1C/C(CO)=C/CCC(=C)C(OC(C)=O)[C@H]2OC(=O)C(=C)[C@H]12` (stereo not given in full): the EC50 is over 200 µM and the concentration for half-maximal inhibition (IC50) turned out to be 1.05 µM.

Consider `Cc1ccc(C)c2c1C1CCCCC3(OCCCO3)C21O` (stereo not given), for which the EC50 was over 200 µM and the concentration for half-maximal inhibition (IC50) was over 200 µM.

Turning to `CC(C)C(Sc1nc(-c2ccccc2)c(-c2ccccc2)[nH]1)C(=O)NN` (stereo not given), the EC50 is over 10.2 µM and the IC50 is 4.9 µM.

On to `O=C(O)c1nc2ccccc2nc1Nc1ccc(Cl)c(Cl)c1`, for which the EC50 was over 200 µM and the IC50 came to 11.5 µM.

For `C[N+]1([O-])[C@H]2CC(OC(=O)[C@H](CO)c3ccccc3)C[C@H]1[C@H]1O[C@H]12` (stereo not given in full), the EC50 was over 200 µM and the IC50 is over 200 µM.

Consider `COC(=O)c1ccccc1C1CN=NC12Cc1cc(C)c(C)cc1C2=O` (stereo not given), for which the EC50 was over 138 µM and the IC50 was over 138 µM.

Regarding `CC(=O)OCC1OC(n2c(-c3ccccc3)cc(-c3ccccc3)c(C#N)c2=O)C(OC(C)=O)C(OC(C)=O)C1OC(C)=O` (stereo not given), the EC50 was over 16.6 µM and the half-inhibitory concentration (IC50) was over 16.6 µM.

With `COc1ccc(OC)c(CSc2ccc(OC)c(OC)c2)c1`, the EC50 was over 200 µM and the IC50 is 85.1 µM.

Turning to `Nc1ccc(C2CCC(C(=O)O)N2)cc1` (stereo not given), the EC50 is over 200 µM and the IC50 is over 200 µM.

Take `Cc1ccc(/C=C2\CN(C)CC3C2=NC(=S)NC3c2ccc(C)cc2)cc1` (stereo not given): the EC50 was over 200 µM and the concentration for half-maximal inhibition (IC50) came to 24.5 µM.

On to `CCOC(=O)C(NC(=O)c1ccccc1)(Nc1ccc(S(=O)(=O)Nc2ccc(OC)nn2)cc1)C(F)(F)F` (stereo not given), for which the EC50 was over 200 µM and the IC50 was over 200 µM.

Consider `COc1ccc(Br)c(CCCCCCCC(=O)O)c1`, for which the EC50 is over 100 µM and the half-inhibitory concentration (IC50) is over 100 µM.

With `C=CCC1C(=O)CC2(C)C(CC=C)C(=O)CC12C` (stereo not given), the result was inactive.

In the case of `COc1nc(N2CCNCC2)nc2c1CCCC2`, the result was inactive.

With `c1ccc(-c2nc3nc4ccccc4nc3nc2-c2ccccn2)nc1`, the EC50 is over 53.7 µM and the half-inhibitory concentration (IC50) amounted to 10.7 µM.

For the compound `CC(C)(C)c1cc(-c2cc(C(C)(C)C)[nH]n2)n[nH]1`, the EC50 was over 200 µM and the IC50 was over 200 µM.

Consider `Cc1nc2ccccc2c(=O)n1CC(=O)O`, for which the outcome was inactive.

Turning to `O=C(OCCSSCCOC(=O)c1ccc([N+](=O)[O-])cc1)c1ccc([N+](=O)[O-])cc1`, the EC50 was over 200 µM and the IC50 was 12 µM.

Turning to `CCN(CC)Cc1ccccc1CC(=O)N1c2ccccc2C(=O)Nc2cccnc21`, the EC50 is over 200 µM and the IC50 is over 200 µM.

For the compound `CC(NO)/C(=N/O)c1ccco1` (stereo not given), the EC50 was over 200 µM and the concentration for half-maximal inhibition (IC50) is over 200 µM.

Consider `OC12CCC[N+]1(Cc1ccccc1)CCC2` (stereo not given), for which the EC50 is over 794 µM and the IC50 came to 708 µM.

Turning to `O=c1oc2ccccc2cc1Cl`, the EC50 was over 145 µM and the half-inhibitory concentration (IC50) is over 145 µM.

`CN1C(=O)C(C)(O)c2ccccc21` (stereo not given): the EC50 is over 1410 µM and the half-maximal inhibitory concentration (IC50) was 550 µM.

Turning to `CCCCc1ccc(Nc2nc3c(ncn3C3OC(COC(C)=O)C(OC(C)=O)C3OC(C)=O)c(=O)[nH]2)cc1` (stereo not given), the EC50 is over 200 µM and the IC50 was found to be 11.7 µM.

`O=C(NCCN1CCCCC1)c1cccc(I)c1`: the EC50 was over 200 µM and the IC50 is over 200 µM.

As to `CC(=O)OCC1OC(n2c(-c3ccccc3)c(C)c(C)c(C#N)c2=S)C(OC(C)=O)C(OC(C)=O)C1OC(C)=O` (stereo not given), the EC50 is over 100 µM and the half-maximal inhibitory concentration (IC50) was over 100 µM.

Turning to `N#CS/C(C(Cl)=C(Cl)Cl)=C(/Cl)[N+](=O)[O-]`, the EC50 was over 200 µM and the IC50 stood at 8.32 µM.

As to `COc1cc2c(cc1OC(=O)CC(C)O)C1C(OC2=O)C(OC(C)=O)C=C2CCN(C)[C@H]21` (stereo not given in full), the EC50 is over 56.2 µM and the concentration for half-maximal inhibition (IC50) is over 56.2 µM.

For the compound `CC1(C)C(=O)C(O)=CC2C1=CCC1C2(C)C(=O)CC2(C)C(C(C)(O)C(=O)CC(O)C(C)(C)O)C(O)CC12C` (stereo not given), the EC50 is over 20 µM and the IC50 was found to be 1.32 µM.

`O=C1N=C(SC(SC2=NC(=O)C3(NN2)c2ccccc2-c2ccccc23)=C(SC2=NC(=O)C3(NN2)c2ccccc2-c2ccccc23)SC2=NC(=O)C3(NN2)c2ccccc2-c2ccccc23)NNC12c1ccccc1-c1ccccc12`: the EC50 is over 91.2 µM and the IC50 was 42.7 µM.

As for `C=CCC1(O)C(CO[Si](C)(C)C(C)(C)C)OC(n2ccc(=O)[nH]c2=O)C1O[Si](C)(C)C(C)(C)C` (stereo not given), the EC50 is over 200 µM and the half-maximal inhibitory concentration (IC50) turned out to be 10.2 µM.

Regarding `Cn1c2c(sc1=O)CCC2`, the EC50 is over 200 µM and the IC50 is over 200 µM.

`C[C@@H](O)[C@H]1/C=C/C=C\C(=O)O[C@@H]2C[C@H]3O[C@@H]4[C@@H]5OC5(C)CCC4(COC(=O)[C@H]4O[C@]4(C)[C@@H](O)CO1)[C@]2(C)[C@]31CO1` (stereo not given in full): the EC50 was over 0.2 µM and the IC50 was found to be 0.0631 µM.

With `CC1=C(C(=O)CC(=O)C(=O)Nc2cccc(Cl)c2C)Sc2ccccc2N1`, the EC50 was over 64.6 µM and the IC50 is over 64.6 µM.

As for `CCCC(C)N(CC(=O)Nc1ccc(S(N)(=O)=O)cc1)C(C)=O` (stereo not given), the EC50 is over 200 µM and the 50% inhibitory concentration (IC50) is over 200 µM.

Turning to `CCOC(=O)C(CS)NC(=O)CCCCCCCC(=O)O` (stereo not given), the EC50 was over 100 µM and the half-maximal inhibitory concentration (IC50) is 79.4 µM.

`CN(C)c1nc(N)c(N=O)c(=O)[nH]1`: the EC50 is over 200 µM and the IC50 turned out to be 178 µM.

As to `CC(C)N(C(C)C)[PH+]1O[PH+](N(C(C)C)C(C)C)O[PH+](N(C(C)C)C(C)C)O[PH+](N(C(C)C)C(C)C)O1.[C-]#[O+].[C-]#[O+].[C-]#[O+].[C-]#[O+].[C-]#[O+].[C-]#[O+].[C-]#[O+].[C-]#[O+].[Mo].[Mo]` (stereo not given), the EC50 is over 35.5 µM and the half-maximal inhibitory concentration (IC50) is over 35.5 µM.

As for `COc1ccc(S(=O)(=O)c2nnc(S(=O)(=O)Cc3ccccc3)s2)cc1`, the EC50 was over 200 µM and the IC50 was 3.63 µM.

For the compound `CC(NC(=O)C(N)Cc1ccc(O)cn1)C(=O)O` (stereo not given), the EC50 is over 200 µM and the half-inhibitory concentration (IC50) is over 200 µM.

Turning to `CCC(CCCC[C@@H]1CC[C@H]2CC(=O)C[C@@H]12)OC` (stereo not given in full), the EC50 is over 200 µM and the IC50 is 151 µM.

On to `Cc1cc(N2CCCC2)c([N+](=O)[O-])cc1[N+](=O)[O-]`, for which the EC50 was over 200 µM and the concentration for half-maximal inhibition (IC50) was over 200 µM.

Take `CC(=O)C1CC2(c3ccccc3)C(=O)c3ccccc3N2O1` (stereo not given): the EC50 is over 447 µM and the half-maximal inhibitory concentration (IC50) came out at 195 µM.

As for `CCN(CC)c1ccc(/C=C/c2n(-c3ccccc3)c3ccccc3[n+]2C)cc1`, the EC50 is over 2 µM and the IC50 worked out at 0.115 µM.

Turning to `CCOC(=O)/C=C\SCCC(=O)OC`, the EC50 was over 1150 µM and the IC50 was found to be 741 µM.

In the case of `O=c1/c(=C/c2ccc3c(c2)OCO3)sc2nnc(Cc3ccccc3)n12`, the EC50 was over 20 µM and the 50% inhibitory concentration (IC50) is over 20 µM.

With `OCC1OC(n2cnc3cncnc32)C(O)C1O` (stereo not given), the result was inactive.

Regarding `CC(C)C(/C=C/c1ccccc1)=N\NC(=S)NN`, the EC50 was over 200 µM and the IC50 came out at 102 µM.

Take `CCCc1cc(=O)oc2c3c(cc(OC)c12)O[C@H](C)C(C)[C@H]3O` (stereo not given in full): the EC50 was over 200 µM and the half-maximal inhibitory concentration (IC50) came to 51.3 µM.

One may read the EC50 as the midpoint of the concentration-response curve. As a reminder, the IC50 is the concentration that inhibits the measured activity by half. A lower IC50 goes with greater potency in that assay.

The values above are taken from PubChem BioAssay AID179 (DTP/NCI, 2004).
